Measurements from US20190062305A1, “PYRIDYL OR PYRAZINYL COMPOUNDS CARRYING A METHYL-BOUND ALPHA-AMINO ACID AMIDE GROUP” (ABBVIE DEUTSCHLAND GMBH & CO. KG, priority 2015, published 2019).
Where a name gives a salt, the structure may show the parent alone.

Molecular target: T1, 5-HT2C receptor (Homo sapiens, UniProt P28335)
T1 construct: host or cells: U2OS
Assay: Human 5-HT2C functional assay (beta-arrestin2 recruitment, U2OS_HTR2C_β-Arrestin cells)
Assay type: cell-based
Settings: for EC50: beta-arrestin2 recruitment, U2OS_HTR2C_β-Arrestin cells, 1.5 h incubation, read-out: EC50 5-HT2C (potency in functional assay); for Emax: relative efficacy vs response to 10 μM 5-HT or maximal 5-HT effect (100%)
Method: The functional activity of compounds of formula I was assayed by incubation with U2OS_HTR2C_β-Arrestin cells (DiscoverX, 93-0289C3) to induce beta-arrestin2 recruitment to the 5-HT2C receptor. The agonist-induced recruitment and proximity of the receptor and beta-arrestin2 leads to complementation and formation of active β-galactosidase. The enzyme complementation results in enzyme activity, which is measured following the termination of the agonist incubation using DiscoveRx's detection reagent, which contains a chemiluminescent substrate which produces a high intensity signal. Cells were plated and a medium-change to a 1% serum containing medium was performed 24h later. The next day, test compounds were added and incubated for 1.5 h before addition of detection reagent.
The response produced was measured and compared with the response produced by 10 [mu]M 5-HT or the maximal effect induced by 5-HT (defined as 100%) to which it was expressed as a percentage response (relative efficacy). Dose response curves were constructed using Graphpad Prism (Graph Software Inc.) or using in house adapted software using a 4 parameter dose response model with variable slope (fit=(Bottom+(Top-Bottom)/(1+10^∧((Log EC50−x)*HillSlope))res=(y-fit)). Results are compiled in the table below.

T1 sequence (P28335 33-458): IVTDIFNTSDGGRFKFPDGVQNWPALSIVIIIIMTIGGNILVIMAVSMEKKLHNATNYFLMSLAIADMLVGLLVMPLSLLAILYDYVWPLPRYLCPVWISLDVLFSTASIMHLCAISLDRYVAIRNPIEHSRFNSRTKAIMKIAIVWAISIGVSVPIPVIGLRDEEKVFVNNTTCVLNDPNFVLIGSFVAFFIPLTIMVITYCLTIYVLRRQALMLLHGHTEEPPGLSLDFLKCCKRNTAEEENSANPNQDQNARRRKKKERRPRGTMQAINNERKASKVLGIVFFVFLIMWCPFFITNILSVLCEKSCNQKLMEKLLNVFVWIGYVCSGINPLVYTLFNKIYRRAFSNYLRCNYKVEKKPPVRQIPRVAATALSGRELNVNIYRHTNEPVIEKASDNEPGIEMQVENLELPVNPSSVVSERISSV
T1 sequence (P32121 whole entry partner): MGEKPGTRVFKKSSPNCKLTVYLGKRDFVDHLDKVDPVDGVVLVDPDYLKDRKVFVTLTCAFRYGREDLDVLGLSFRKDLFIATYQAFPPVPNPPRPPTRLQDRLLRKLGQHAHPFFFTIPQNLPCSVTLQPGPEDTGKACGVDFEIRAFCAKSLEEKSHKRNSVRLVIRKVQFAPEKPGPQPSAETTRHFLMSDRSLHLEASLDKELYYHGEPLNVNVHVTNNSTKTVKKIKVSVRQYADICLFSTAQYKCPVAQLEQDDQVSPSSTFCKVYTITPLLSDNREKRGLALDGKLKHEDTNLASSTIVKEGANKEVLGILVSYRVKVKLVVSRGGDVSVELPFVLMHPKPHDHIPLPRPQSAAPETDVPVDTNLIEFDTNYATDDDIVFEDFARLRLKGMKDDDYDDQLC

| SMILES | EC50 | Emax |
| --- | --- | --- |
| COc1nc(OCC(F)(C(F)(F)F)C(F)(F)F)c(F)cc1CNC(=O)[C@@H]1CCCN1 [Example 69, (S)—N-((5-Fluoro-2-methoxy-6-(2,3,3,3-tetrafluoro-2-(trifluoromethyl)propoxy)pyridin-3-yl)methyl)pyrrolidine-2-carboxamide Hydrochloride] | < 20 nM | > 70% |
| COc1nc(OC2CCC(C(F)(F)F)CC2)c(F)cc1CNC(=O)[C@H]1NC[C@@H]2C[C@@H]21 (stereo partly drawn) [Example 85, (1R,4S,5S)—N-[[5-Fluoro-2-methoxy-6-[4-(trifluoromethyl)cyclohexoxy]-3-pyridyl]methyl]-3-azabicyclo[3.1.0]hexane-4-carboxamide Hydrochloride] | < 20 nM | 30 to 50% |
| COc1nc(C(F)(F)C(Cl)c2ccccc2)c(F)cc1CN(C)C(=O)C1CCCN1 (stereo not drawn) [Example 192, N-[[6-(2-Chloro-1,1-difluoro-2-phenyl-ethyl)-5-fluoro-2-methoxy-3-pyridyl]-methyl]-N-methyl-pyrrolidine-2-carboxamide Dihydrochloride] | 200 to 1000 nM | 50 to 70% |
| COc1nc(OC2CCC(F)(F)C2)c(F)cc1CN(C)C(=O)[C@@H]1CCCN1 (stereo partly drawn) [Example 123, (2S)—N-[[6-(3,3-Difluorocyclopentoxy)-5-fluoro-2-methoxy-3-pyridyl]methyl]-N-methyl-pyrrolidine-2-carboxamide Hydrochloride] | < 20 nM | 50 to 70% |
| COc1nc(OC(C)C(F)(F)C(F)(F)F)c(F)cc1CNC(=O)[C@@H]1CCCN1 (stereo partly drawn) [Example 50, (2S)—N-[[5-Fluoro-2-methoxy-6-(2,2,3,3,3-pentafluoro-1-methyl-propoxy)-3-pyridyl]methyl]pyrrolidine-2-carboxamide; Succinic Acid] | < 20 nM | > 70% |
| COc1nc(CC2CCCCC2)c(F)cc1CNC(=O)[C@@H]1CCCN1 [Example 129, (2S)—N-[[6-(Cyclohexylmethyl)-5-fluoro-2-methoxy-3-pyridyl]methyl]pyrrolidine-2-carboxamide] | < 20 nM | > 70% |
| COc1nc(O[C@H]2CC[C@H](C(F)(F)F)CC2)c(F)cc1CNC(=O)[C@H]1NC[C@@H]1C [Example 80, (2S,3 S)—N-[[5-Fluoro-2-methoxy-6-[4-(trifluoromethyl)cyclohexoxy]-3-pyridyl]methyl]-3-methyl-azetidine-2-carboxamide; Fumaric Acid] | 20 to 200 nM | > 70% |
| COc1nc(OCC2CC2(F)F)c(F)cc1CNC(=O)[C@@H]1CCCN1 (stereo partly drawn) [Example 41, (2S)—N-[[6-[(2,2-Difluorocyclopropyl)methoxy]-5-fluoro-2-methoxy-3-pyridyl]methyl]pyrrolidine-2-carboxamide; Succinic Acid] | < 20 nM | > 70% |
| COc1nc(OCC23CC(C2)C3)c(F)cc1CNC(=O)[C@@H]1CCCN1 [Example 22, (S)—N-((6-(Bicyclo[1.1.1]pentan-1-ylmethoxy)-5-fluoro-2-methoxypyridin-3-yl)methyl)pyrrolidine-2-carboxamide Hydrochloride] | < 20 nM | > 70% |
| COc1nc(OCc2cc(F)cc(F)c2)c(F)cc1CN(C)C(=O)[C@@H]1CCCN1 [Example 122, (2S)—N-[[6-[(3,5-Difluorophenyl)methoxy]-5-fluoro-2-methoxy-3-pyridyl]methyl]-N-methyl-pyrrolidine-2-carboxamide Hydrochloride] | < 20 nM | > 70% |
| COc1nc(OC2CCC(OC(F)F)CC2)c(F)cc1CNC(=O)[C@@H]1CCCN1 (stereo partly drawn) [Example 67, (2S)—N-[[6-[4-(Difluoromethoxy)cyclohexoxy]-5-fluoro-2-methoxy-3-pyridyl]-methyl]pyrrolidine-2-carboxamide] | < 20 nM | > 70% |
| COc1nc(OCCC(F)(F)C(F)(F)F)c(F)cc1CNC(=O)[C@@H]1CCCN1 [Example 45, (2S)—N-[[5-Fluoro-2-methoxy-6-(3,3,4,4,4-pentafluorobutoxy)-3-pyridyl]methyl]-pyrrolidine-2-carboxamide; Succinic Acid] | < 20 nM | > 70% |
| COc1nc(OC[C@@H]2CCC(F)(F)C2)c(F)cc1CNC(=O)[C@@H]1CCCN1C [Example 16, (2S)—N-[[6-[[(1R)-3,3-Difluorocyclopentyl]methoxy]-5-fluoro-2-methoxy-3-pyridyl]methyl]-1-methyl-pyrrolidine-2-carboxamide] | < 20 nM | > 70% |
| COc1nc(O[C@H]2C[C@@H](C(F)(F)F)C2)c(F)cc1CN(C)C(=O)[C@@H]1CCCN1 [Example 121, (2S)—N-[[5-Fluoro-2-methoxy-6-[cis-3-(trifluoromethyl)cyclobutoxy]-3-pyridyl]methyl]-N-methyl-pyrrolidine-2-carboxamide Hydrochloride] | < 20 nM | 50 to 70% |
| COc1nc(N2CCCC2)c(F)cc1CNC(=O)[C@@H]1CCCN1 [Example 135, (2S)—N-[(5-Fluoro-2-methoxy-6-pyrrolidin-1-yl-3-pyridyl)methyl]pyrrolidine-2-carboxamide; 2,2,2-trifluoroacetic Acid] | 20 to 200 nM | > 70% |
| COc1nc(O[C@H]2C[C@H](C(F)(F)F)C2)c(F)cc1CN(C)C(=O)[C@@H]1CCCN1 [Example 120, (2S)—N-[[5-Fluoro-2-methoxy-6-[trans-3-(trifluoromethyl)cyclobutoxy]-3-pyridyl]-methyl]-N-methyl-pyrrolidine-2-carboxamide Hydrochloride] | < 20 nM | 50 to 70% |
| COc1nc(NCC2CCC(C(F)(F)F)CC2)c(F)cc1CNC(=O)[C@@H]1CCCN1 (single isomer, unassigned) [Example 149] | 20 to 200 nM | – |
| COc1nc(OC2CCCCC2C(F)(F)F)c(F)cc1CNC(=O)[C@@H]1CCCN1 (stereo partly drawn) [Example 57, (2S)—N-[[5-Fluoro-2-methoxy-6-[2-(trifluoromethyl)cyclohexoxy]-3-pyridyl]methyl]pyrrolidine-2-carboxamide; 2,2,2-trifluoroacetic Acid] | < 20 nM | > 70% |
| COc1nc(OCc2ccc(F)cc2)c(F)cc1CN(C)C(=O)[C@@H]1CCCN1 [Example 124, (2S)—N-[[5-Fluoro-6-[(4-fluorophenyl)methoxy]-2-methoxy-3-pyridyl]methyl]-N-methyl-pyrrolidine-2-carboxamide Hydrochloride] | 20 to 200 nM | 50 to 70% |
| COc1nc(N2C[C@@H]3CC(F)(F)C[C@@H]3C2)c(F)cc1CNC(=O)[C@@H]1CCCN1 [Example 181, (2S)—N-[[6-[(3aR,6aS)-5,5-Difluoro-1,3,3a,4,6,6a-hexahydrocyclopenta[c]pyrrol-2-yl]-5-fluoro-2-methoxy-3-pyridyl]methyl]pyrrolidine-2-carboxamide; 2,2,2-trifluoroacetic Acid] | < 20 nM | – |
| COc1nc(OC2CC3C(C2)C3(F)F)c(F)cc1CNC(=O)C1CCCN1C (stereo not drawn) [Example 64, N-[[6-[(6,6-Difluoro-3-bicyclo[3.1.0]hexanyl)oxy]-5-fluoro-2-methoxy-3-pyridyl]methyl]-1-methyl-pyrrolidine-2-carboxamide Dihydrochloride] | < 20 nM | > 70% |
| COc1nc(OCC23CC4CC(CC(C4)C2)C3)c(F)cc1CNC(=O)[C@@H]1CCCN1 [Example 70, (2S)—N-[[6-(1-Adamantylmethoxy)-5-fluoro-2-methoxy-3-pyridyl]methyl]-pyrrolidine-2-carboxamide; 2,2,2-trifluoroacetic Acid] | < 20 nM | > 70% |
| COc1nc(OC2CCC(F)(F)CC2)c(F)cc1CNC(=O)[C@@H]1CCN1C [Example 39, (2S)—N-[[6-(4,4-Difluorocyclohexoxy)-5-fluoro-2-methoxy-3-pyridyl]methyl]-1-methyl-azetidine-2-carboxamide; Succinic Acid] | 20 to 200 nM | 50 to 70% |
| COc1nc(OCc2cc(F)cc(F)c2)c(F)cc1CNC(=O)[C@@H]1CCCN1 [Example 5, (S)—N-((6-((3,5-Difluorobenzyl)oxy)-5-fluoro-2-methoxypyridin-3-yl)methyl)pyrrolidine-2-carboxamide Hydrochloride] | < 20 nM | > 70% |
| COc1nc(OC2CCC(F)(F)CC2)c(F)cc1CNC(=O)[C@@H]1C=CCN1C [Example 21, (2S)—N-[[6-(4,4-Difluorocyclohexoxy)-5-fluoro-2-methoxy-3-pyridyl]methyl]-1-methyl-2,5-dihydropyrrole-2-carboxamide] | 20 to 200 nM | > 70% |
